Measured values from patent US4792550A, “13-aza-14-oxo-TXA2 analogues” (Ono Pharmaceutical Co., Ltd., priority 1984, dated 1988).
Like-named read-outs stand apart in the source and are kept apart here.

Tests used:
[1] = test system: platelet aggregation induced by STA2 in human blood; test: Inhibitory activity of platelet aggregation induced by STA2 in human blood; format: cell-based; settings: method of Born, read-out: concentrations required 50% inhibition on platelet aggregation (IC50)
Method: (i) concentrations required 50% inhibition (IC50) on platelet aggregation using human blood induced by STA2 (9,11-epithio-15-hydroxy-11a-carbathromb-5Z,13E-dienoic acid), and
(i) Inhibitory activitv of platelet aggregation induced by STA2 in human blood
Whole blood of healthy human adult was collected with citric acid, and the mixture (20 ml) was centrifuged (180×g) for 10 min. The surpernatant obtained was diluted with sufficient platelet poor plasma to obtain plasma which contains 300,000 platelet cells per μl.
A solution of tested compound in ethanol (1 μl) was added to the obtained plasma (250 μl), and then a solution of STA2 in ethanol was added to the mixture. The measurement was carried out followed by the method of Born and then IC50 was calculated.

[2] = test system: contraction of artery induced by STA2; test: Inhibitory activity on contraction of artery (increase of blood pressure) induced by STA2 in guinea pig; format: in vivo; settings: male guinea pig, 100 μg/kg i.v., blood pressure at carotid artery; for inhibition in vivo at 0.1 mg/kg: Cavia porcellus, iv, read-out: Inhibitory ratios on contraction of artery
Method: (ii) inhibitory percentages on contraction of artery induced by STA2 in guinea pigs.
(ii) Inhibitory activity of increasing of blood pressure
A glycine-sodium hydroxide buffer solution (pH 10) of tested compound was administered intravenously to a urethaneanaesthetized male guinea pig weighing 200-350 g, at a rate of 100 μg/kg animal body weight via carotid vein.
And a solution of STA2 in phosphate buffer (pH 7.4) was administered intravenously. Change of the blood pressure was measured at carotid artery and then inhibition ratio (%) was calculated.

Compound	IC50 ([1]; Homo sapiens, Platelet) [nM]	IC50 [1] [nM]	Inhibitory ratios on contraction of artery [2] [%]	inhibition in vivo at 0.1 mg/kg [2] [%]
CC(C)C(O)C(=O)N[C@H]1C[C@H]2C[C@@H]([C@@H]1C/C=C\CCCC(=O)O)C2(C)C (single isomer, unassigned) [1(jj)]	300		46.8	
CC(C)C(O)C(=O)N[C@H]1C[C@H]2C[C@@H]([C@@H]1C/C=C\CCCC(=O)O)C2(C)C (single isomer, unassigned) [1(kk)]		260	18.5	
CC1(C)[C@H]2C[C@H](NC(=O)C(O)CCc3ccccc3)[C@@H](C/C=C\CCCC(=O)O)[C@@H]1C2 (some centres unmarked) [1(b)]	280			75.2
CC1(C)[C@H]2C[C@H](NC(=O)CC3Cc4ccccc4C3)[C@@H](C/C=C\CCCC(=O)O)[C@@H]1C2 [1(cc)]	710			
CC(C)CC(=O)N[C@H]1C[C@H]2C[C@@H]([C@@H]1C/C=C\CCCC(=O)O)C2(C)C [1(ee)]	380			39
CC1(C)[C@H]2C[C@H](NC(=O)CCCc3cccc(Cl)c3)[C@@H](C/C=C\CCCC(=O)O)[C@@H]1C2 [1(r)]	670			58.6
CC1(C)[C@H]2C[C@H](NC(=O)C(Cl)C3CCCC3)[C@@H](C/C=C\CCCC(=O)O)[C@@H]1C2 (some centres unmarked) [2(h)]	450			57.6
CC1(C)[C@H]2C[C@H](NC(=O)CCCc3ccccc3)[C@@H](C/C=C\CCCC(=O)O)[C@@H]1C2 [3(c)]	430			78.1

Further compounds by falling IC50 ([1]; Homo sapiens, Platelet), results first:

IC50 ([1]; Homo sapiens, Platelet) [nM]	IC50 [1] [nM]	Compound	Inhibitory ratios on contraction of artery [2] [%]	inhibition in vivo at 0.1 mg/kg [2] [%]
670		CCCCCC(=O)N[C@H]1C[C@H]2C[C@@H]([C@@H]1C/C=C\CCCC(=O)O)C2(C)C [Example 6, 9α,11α-dimethylmethano-13-aza-14-oxo-20-nor-11a-carbathromb-5Z-enoic acid]		78.1
630		CC1(C)[C@H]2C[C@H](NC(=O)CCCCc3ccccc3)[C@@H](C/C=C\CCCC(=O)O)[C@@H]1C2 [3(g)]		60.5
560		CC1(C)[C@H]2C[C@H](NC(=O)C3CCCC3)[C@@H](C/C=C\CCCC(=O)O)[C@@H]1C2 [1(o)]		34.2
560		CCCCC(=O)N[C@H]1C[C@H]2C[C@@H]([C@@H]1C/C=C\CCCC(=O)O)C2(C)C [2(j)]		27.3
550		CCC(C)CC(=O)N[C@H]1C[C@H]2C[C@@H]([C@@H]1C/C=C\CCCC(=O)O)C2(C)C (some centres unmarked) [1(dd)]		37.1
420		CC1(C)[C@H]2C[C@H](NC(=O)CC3CCCC3)[C@@H](C/C=C\CCCC(=O)O)[C@@H]1C2 [2(g)]		39
320		CCCCCC(O)C(=O)N[C@H]1C[C@H]2C[C@@H]([C@@H]1C/C=C\CCCC(=O)O)C2(C)C (some centres unmarked) [1(c)]		71.2
300		CC(C)CCC(=O)N[C@H]1C[C@H]2C[C@@H]([C@@H]1C/C=C\CCCC(=O)O)C2(C)C [1(hh)]		42
290		CC1(C)[C@H]2C[C@H](NC(=O)CCSc3ccccc3)[C@@H](C/C=C\CCCC(=O)O)[C@@H]1C2 [1(aa)]		66.4
190		CC(CC(=O)N[C@H]1C[C@H]2C[C@@H]([C@@H]1C/C=C\CCCC(=O)O)C2(C)C)Cc1ccccc1 (some centres unmarked) [1(w)]		60.5
